Data set [1] deals with Cercospora brown spot of peanut. Description: In vitro fungicidal activity, PDA colony diameter. The data set is classed as cell-based. The conditions noted are these: 96 h, 50 mg/kg, inhibition of colony diameter, read-out: Fungicidal activity (%) Cercospora brown spot of peanut.
For a further data set, the system named is Potato late blight. Description: microbe, parasite or virus in culture. The conditions noted are these: Phytophthora infestans, 96 h, read-out: Fungicidal activity (%) Potato late blight. The data set is classed as cell-based.
For a further data set, the system named is Sclerotinia rot of colza. Description: In vitro fungicidal activity, PDA colony diameter. The conditions noted are these: 96 h, 50 mg/kg, inhibition of colony diameter, read-out: Fungicidal activity (%) Sclerotinia rot of colza. The format is cell-based.
Another data set concerns Tomato early blight. Description: In vitro fungicidal activity, PDA colony diameter. As to conditions: 50 mg/kg, inhibition of colony diameter; read-out: Fungicidal activity (%) Tomato early blight. The format is cell-based, Alternaria solani.
The subject of the next data set is Rice bakanae disease. Description: In vitro fungicidal activity, PDA colony diameter. The data set is classed as cell-based. The conditions noted are these: read-out: Fungicidal activity (%) Rice bakanae disease.
The test system of the next data set is Rice sheath blight. Description: In vitro fungicidal activity, PDA colony diameter. The conditions noted are these: 50 mg/kg, inhibition of colony diameter; read-out: Fungicidal activity (%) Rice sheath blight. The data set is classed as cell-based.
Data set [2] has as its system mosquito larvae (Culer pipiens pallens). Description: Test of insecticidal activity against mosquito larvae (checked after 24 h). The conditions noted are these: 24 h, read-out: Mortalities (%) against mosquito larvae.
Method: Method of testing against mosquito larvae: the tested mosquito larvae are Culer pipiens pallens, a normal colony fed indoor. About 5 mg compound to be tested is weighed and loaded into a penicillin vial, 5 mL acetone (or an appropriate solvent) is added into the vial, and the vial is oscillated to dissolve the compound; thus, 1,000 ppm mother liquid is obtained. 1 mL mother liquid is weighed and added into a 100 mL beaker filled with 89 mL water, 10 mosquito larvae in the early stage of the 4th instar together with 10 mL feeding solution are poured into the beaker; thus, the concentration of the pesticide solution is 10 ppm (the pesticide solutions with other concentrations are attained by diluting the mother liquid by corresponding times). […] Water solution that contains 0.5 mL test solvent is used as a blank sample.
The next data set deals with Watermelon anthracnose. Nature of the data set: In vitro fungicidal activity, PDA colony diameter. The format is cell-based. The conditions noted are these: 50 mg/kg, inhibition of colony diameter; read-out: Fungicidal activity (%) Watermelon anthracnose.
A further data set relates to Armyworms. Nature of the data set: Test of insecticidal activity against armyworms (leaf immersion). The conditions noted are these: 600 mg/kg, 3-4 days.
Data set [3] deals with bean aphides (Aphis laburni Kaltenbach). Description: Test of insecticidal activity against aphides (leaf immersion, checked after 96 h). As to conditions: for insecticidal activity against aphides compared with pymetrozine: 5 mg/kg.
Another data set deals with Cotton bollworms. Nature of the data set: Test of insecticidal activity against cotton bollworms (pesticide mixed into feedstuff). The conditions noted are these: read-out: Mortalities (%) Cotton bollworms.
Data set [4] concerns Capsicum phytophthora blight. Description: In vitro fungicidal activity, PDA colony diameter. The data set is classed as cell-based. As to conditions: 96 h. The procedure, abridged: (§1)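 Percent growth inhibition derived from colony diameter versus compound-free PDA control after 4 days' culture. Plates contained compound at 50 mg/kg; inoculum was a plug taken from the periphery of a 7-day PDA culture.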

In another data set the test system is Apple ring rot. Description: In vitro fungicidal activity, PDA colony diameter. The data set is classed as cell-based. As to conditions: inhibition of colony diameter. The procedure, abridged:
as §1

In a further data set the test system is Cucumber fusarium wilt. Description: In vitro fungicidal activity, PDA colony diameter. The format is cell-based. The conditions noted are these: 96 h, 50 mg/kg, inhibition of colony diameter, read-out: Fungicidal activity (%) Cucumber fusarium wilt.
The test system of the next data set is Wheat sheath blight. Nature of the data set: In vitro fungicidal activity, PDA colony diameter. The format is cell-based. As to conditions: 50 mg/kg, inhibition of colony diameter; read-out: Fungicidal activity (%) Wheat sheath blight.
Another data set concerns Wheat head blight. Nature of the data set: whole plant or invertebrate. The data set is classed as cell-based. The conditions noted are these: Triticum aestivum, read-out: Fungicidal activity (%) Wheat head blight.
For a further data set, the system named is Maize borers. Nature of the data set: Test of insecticidal activity against maize borers (leaf immersion). The conditions noted are these: read-out: Mortalities (%) Maize borers.
The test system of data set [5] is Corn southern leaf blight. Description: In vitro fungicidal activity, PDA colony diameter. The data set is classed as cell-based. The conditions noted are these: 50 mg/kg, inhibition of colony diameter; read-out: Fungicidal activity (%) Corn southern leaf blight.
Where [6] appears, read: 50 mg/kg, inhibition of colony diameter.
Setting [7] is: Aphis, 96 h, read-out: Mortalities (%) against aphides.

The results in this text go back to patent US11203577B2, “Sulfonyl-structure-containing triazinone derivatives, their preparation methods and their uses in insect killing and/or bacterium killing” (Nankai University, priority 2017, dated 2021).

Molecules are shown by their SMILES. Like-named read-outs stand apart in the source and are kept apart here.

Method for Cotton bollworms: Method of testing against cotton bollworms: the pesticide is mixed into the feedstuff, i.e., 3 mL prepared solution is added into about 27 g freshly prepared feedstuff; thus, required concentration is obtained by diluting by 10 times.

For the molecule `CC1=NNC(=O)N(NS(=O)(=O)c2ccc(Cl)cc2)C1` [Ia-21, 4-chloro-N-(6-methyl-3-oxo-2,3-dihydro-1,2,4-triazin-4(5H)-yl)-benzenesulfonamide], the inhibition of growth at 50 mg/kg in data set [1] was 12%; in the data set with Potato late blight, 18.7%; in the data set with Sclerotinia rot of colza, 26.3%; in data set [4], 25%; with Cucumber fusarium wilt, 5.9%. For the same molecule, the inhibition at 50 mg/kg is 6% in the data set on Tomato early blight; 24.1% with Rice bakanae disease (setting [6]); 11.6% in the data set with Rice sheath blight; 24.6% in the data set with Watermelon anthracnose; 8.1% in the data set on Apple ring rot; 14.3% in the data set with Wheat sheath blight. In addition, the inhibition at 50 mg/kg turned out to be 16.2% in the data set with Wheat head blight and 15.6% in data set [5]. The mortality at 2 mg/kg in data set [2] was 40%. In addition, the results for the mortality at 5 mg/kg in data set [2] and in data set [3] (setting [7]) were 100% and 35%, respectively. Also, the results for the mortality at 10 mg/kg in data set [2] and in [3] (setting [7]) were 100% and 85%, respectively. Besides, the “Mortalities (%) Armyworms” value with Armyworms was found to be 75%. Further, in data set [3], the “insecticidal activity against aphides compared with pymetrozine” value was “equivalent to the insecticidal activity of pymetrozine”. Moreover, in data set [3] (setting [7]), the mortality at 100 mg/kg amounted to 100%. The mortality at 600 mg/kg in data set [3] (setting [7]) was determined as 100%; in the data set with Cotton bollworms, 50%; in the data set with Maize borers, 60%.

For `CC1=NNC(=O)N(NS(=O)(=O)c2ccc(OC(F)(F)F)cc2)C1` [Ia-27, N-(6-methyl-3-oxo-2,3-dihydro-1,2,4-triazin-4(5H)-yl)-4-(trifluoromethoxy)-benzenesulfonamide], the inhibition of growth at 50 mg/kg was determined as 12% in data set [1]; 28.1% with Potato late blight; 15.8% in the data set on Sclerotinia rot of colza; 27.8% in data set [4]; 0% in the data set with Cucumber fusarium wilt. For the same molecule, the inhibition at 50 mg/kg with Tomato early blight turned out to be 16.4%; with Rice bakanae disease (setting [6]), 17.2%; in the data set with Rice sheath blight it was 17.4%; in the data set on Watermelon anthracnose, 16.4%; with Apple ring rot it was 24.3%; in the data set with Wheat sheath blight it was 4.3%. In addition, the figures for the inhibition at 50 mg/kg (with Wheat head blight; in data set [5]) were 16.2% and 15.6%, respectively. Further, the mortality at 2 mg/kg in data set [2] came out at 20%. For the same molecule, the mortality at 5 mg/kg worked out at 90% in data set [2] and 35% in data set [3] (setting [7]). Further, the mortality at 10 mg/kg in data set [2] and in [3] (setting [7]) was 100% each time. In the data set on Armyworms, the “Mortalities (%) Armyworms” value was 5%. Moreover, the “insecticidal activity against aphides compared with pymetrozine” value in data set [3] was “equivalent to the insecticidal activity of pymetrozine”. The mortality at 100 mg/kg in data set [3] (setting [7]) came to 100%. Moreover, the results for the mortality at 600 mg/kg (in data set [3] (setting [7]); in the data set with Cotton bollworms; with Maize borers) were 100%, 25% and 15%, respectively.

In the case of `CC1=NNC(=O)N(NS(=O)(=O)c2cccc(F)c2)C1` [Ia-17, 3-fluoro-N-(6-methyl-3-oxo-2,3-dihydro-1,2,4-triazin-4(5H)-yl)-benzenesulfonamide], the inhibition of growth at 50 mg/kg in [1] turned out to be 16%; in the data set with Potato late blight, 3.1%; with Sclerotinia rot of colza, 21%; in data set [4], 13.9%; with Cucumber fusarium wilt it was 5.9%. For the same molecule, the inhibition at 50 mg/kg with Tomato early blight was determined as 13.4%; in the data set on Rice bakanae disease (setting [6]) it was 13.8%; with Rice sheath blight, 20.9%; in the data set on Watermelon anthracnose, 8.2%; in the data set on Apple ring rot, 10.8%; with Wheat sheath blight it was 14.3%. For the same molecule, the inhibition at 50 mg/kg came out at 35.1% in the data set with Wheat head blight and 0% in data set [5]. The mortality at 2 mg/kg in data set [2] turned out to be 60%. The figures for the mortality at 5 mg/kg in data set [2] and in [3] (setting [7]) were 100% and 35%, respectively. Also, the mortality at 10 mg/kg stood at 100% in data set [2] and 85% in data set [3] (setting [7]). For the same molecule, in the data set with Armyworms, the “Mortalities (%) Armyworms” value was determined as 5%. Besides, the “insecticidal activity against aphides compared with pymetrozine” value in data set [3] is given as “equivalent to the insecticidal activity of pymetrozine”. For the same molecule, the mortality at 100 mg/kg in data set [3] (setting [7]) worked out at 100%. The mortality at 600 mg/kg in data set [3] (setting [7]) was 100%; in the data set with Cotton bollworms, 5%; in the data set with Maize borers, 10%.

As to `CC1=NNC(=O)N(NS(=O)(=O)c2ccccc2)C1` [Ia-9, N-(6-methyl-3-oxo-2,3-dihydro-1,2,4-triazin-4(5H)-yl)-benzenesulfonamide], the inhibition of growth at 50 mg/kg in data set [1] amounted to 15.8%; in the data set on Potato late blight, 22.2%; in the data set with Sclerotinia rot of colza, 40%; in [4], 26.5%; with Cucumber fusarium wilt it was 0%. Also, the inhibition at 50 mg/kg in the data set on Tomato early blight turned out to be 9.5%; in the data set on Rice bakanae disease it was 22.2%; in the data set with Rice sheath blight it was 50.8%; with Watermelon anthracnose it was 12.5%; in the data set on Apple ring rot, 24.1%; in the data set on Wheat sheath blight, 40.9%. In addition, the inhibition at 50 mg/kg with Wheat head blight stood at 0%; in data set [5], 12.5%. Further, the mortality at 2 mg/kg in [2] was 10%. Also, the mortality at 5 mg/kg was 80% in [2] and 30% in [3] (setting [7]). The mortality at 10 mg/kg in data set [2] and in [3] (setting [7]) was 100% throughout. For the same molecule, the “Mortalities (%) Armyworms” value in the data set with Armyworms was 35%. In data set [3], the “insecticidal activity against aphides compared with pymetrozine” value was “equivalent to the insecticidal activity of pymetrozine”. In addition, the mortality at 100 mg/kg in [3] (setting [7]) is 100%. For the same molecule, the mortality at 600 mg/kg came to 100% in data set [3] (setting [7]), 30% in the data set on Cotton bollworms and 25% in the data set on Maize borers.

On to `COc1ccc(S(=O)(=O)NN2CC(C)=NNC2=O)cc1` [Ia-14, 4-methoxy-N-(6-methyl-3-oxo-2,3-dihydro-1,2,4-triazin-4(5H)-yl)-benzenesulfonamide], for which the inhibition of growth at 50 mg/kg came to 12% in data set [1]; 3.1% in the data set on Potato late blight; 15.8% in the data set on Sclerotinia rot of colza; 13.9% in [4]; 8.8% in the data set with Cucumber fusarium wilt. Moreover, the inhibition at 50 mg/kg amounted to 13.4% in the data set on Tomato early blight; 10.3% in the data set with Rice bakanae disease (setting [6]); 11.6% in the data set on Rice sheath blight; 26.2% in the data set with Watermelon anthracnose; 33.8% in the data set on Apple ring rot; 21.7% in the data set on Wheat sheath blight. Besides, the inhibition at 50 mg/kg with Wheat head blight worked out at 16.2%; in [5], 9.3%. Moreover, in data set [2], the mortality at 2 mg/kg worked out at 10%. In addition, the mortality at 5 mg/kg in data set [2] worked out at 95%; in data set [3] (setting [7]), 100%. Besides, the mortality at 10 mg/kg in [2] and in data set [3] (setting [7]) was 100% throughout. For the same molecule, the “Mortalities (%) Armyworms” value in the data set with Armyworms is listed as 0%. Also, the mortality at 2.5 mg/kg in data set [3] (setting [7]) turned out to be 35%. Besides, the mortality at 100 mg/kg in [3] (setting [7]) was determined as 100%. In addition, the values for the mortality at 600 mg/kg (in data set [3] (setting [7]); in the data set with Cotton bollworms; in the data set with Maize borers) were 100%, 0% and 0%, respectively.

For `CCCS(=O)(=O)N(N1CC(C)=NNC1=O)S(=O)(=O)CCC` [Ib-3, N-(6-methyl-3-oxo-2,3-dihydro-1,2,4-triazin-4(5H)-yl)-N-(n-propylsulfonyl)propyl-1-sulfonamide], the inhibition of growth at 50 mg/kg in data set [1] was found to be 15.8%; in the data set on Potato late blight, 22.2%; in the data set with Sclerotinia rot of colza it was 40%; in data set [4] it was 26.5%; with Cucumber fusarium wilt it was 0%. The inhibition at 50 mg/kg in the data set with Tomato early blight was 0%; with Rice bakanae disease (setting [6]), 38.9%; with Rice sheath blight, 38.1%; in the data set with Watermelon anthracnose, 25%; in the data set on Apple ring rot it was 17.2%; in the data set with Wheat sheath blight, 52.3%. In addition, the inhibition at 50 mg/kg with Wheat head blight stood at 10%; in data set [5], 20.8%. Also, the mortality at 10 mg/kg in [2] stood at 25%. Moreover, in the data set on Armyworms, the “Mortalities (%) Armyworms” value is on record as 10%. For the same molecule, the mortality at 600 mg/kg is 75% in [3] (setting [7]), 5% in the data set on Cotton bollworms and 10% in the data set with Maize borers.
